Where “and” joins values, the source holds several entries; their conditions need not be identical. Equal values may be shown once.
What was measured:
[1] = Capacity of solvents to dissolve sophorolactone; format: physicochemical; details: percent sophorolactone dissolved by the solvent at room temperature
[2] = OK / NOK; cited from earlier work
Solubility in water = format: physicochemical
[3] = Contact angle of isoamyl lactate / partial sophorolipid hydrolysate mixtures; format: physicochemical; details: room temperature, sessile drop; FIG. 4
Description: The contact angle of combinations of isoamyl lactate (Galactic) with partial sophorolipid hydrolysate (0.7 mol equivalent) on white PVC-strips (Leneta) was measured at room temperature with a Krüss DSA100 tensiometer using the sessile drop method. Each component of the mixtures is at maximum 1% active matter. Results are evaluated with the software Statistica.

[4] = Contact angle of deionized water on treated substrate, without or with rinses; format: physicochemical; details: 1% active; for Contact angle Rinse 2: after rinse 2; for Contact angle Rinse 2 / Contact angle Rinse 3 / Contact angle Rinse 1 / Contact Angle: in ° (unit assumed); for Contact angle Rinse 3: after rinse 3; for Contact angle Rinse 1: after rinse 1; for Contact Angle: before rinsing, NM = not measurable due to an extremely low contact angle
Description: A test composition was made by dissolving 10% sophorolactone in ethanol. […] Different substrates are wetted with said 1% lactone dispersion and dried in a climate chamber at 40° C. Substrates used were glass, polyvinylchloride (PVC) and leek leaves.
(§1) Several contact angle measurements were performed on each substrate.
(§2) The results obtained were for solutions wherein lactone was replaced by sodium lauryl sulphate (SPS), APG600 (a C10-C16 alkylpolyglucoside), wild type or crude sophorolipid (as obtained after fermentation, denominated as WT in Table 2), FAEO/PO nonionic (CAS 68439-51-0, C12-14 fatty alcohol, 5 mole EO, 4 mol EO), modified FAEO/PO (C8/10 fatty alcohol+1 PO+22 EO (2-hydroxydecyl)-ether) and siloxane polyether copolymer (Silwet Hydrostable 68).
This experiment was repeated with different substrates and different 1% active surfactant solutions as elaborated in Table 2.

[5] = as above; format: physicochemical; details: for Contact angle Rinse 1 / Contact angle Rinse 2 / Contact angle Rinse 3 / Contact angle Rinse 4 / Contact angle Rinse 5 / Contact Angle: PVC, in ° (unit assumed); for Contact angle Rinse 1: after rinse 1; for Contact angle Rinse 2: after rinse 2; for Contact angle Rinse 3: after rinse 3; for Contact angle Rinse 4: after rinse 4; for Contact angle Rinse 5: after rinse 5; for Contact Angle: before rinsing, NM = not measurable due to an extremely low contact angle
Description: A test composition was made by dissolving 10% sophorolactone in ethanol. […] […] Substrates used were glass, polyvinylchloride (PVC) and leek leaves.
as §1
as §2, with “68). […]” for “68).”

Film forming properties = format: physicochemical
Description: This experiment was repeated with pieces of leek with the same outcome. […] The latter destructive detection method necessitated several PVC strips to be used, each strip lasting an extra rinse cycle before detection.

Propionibacterium acnes = assay: Effectiveness against acne bacterium; format: cell-based
Antifogging test = format: physicochemical; details: mirror treated with 10% solution in water of 10% sophorolactone in ethanol, dried
Description: The other half of the mirror was treated with a 10% solution of ethanol.

dust mite proteins = assay: Denaturation of dust mite proteins; format: biochemical
[6] = Allergic reaction to house dust mite excrements
[7] = Sensitivity to hard water; format: physicochemical

OCCCO [1.3 propanediol]
% lactone dissolved [1]: 2.75%

CC1(C)OCC(CO)O1 (stereo not drawn) [2-3-o-isopropyliden glycerin, (2,2-dimethyl-[1,3]dioxolan-4-yl)-methanol]
GRAS status [2]: NOK

OCc1ccccc1 [Benzylalcohol]
% lactone dissolved [1]: 67.35%

CCCCOC(=O)C(C)O (stereo not drawn) [Butyl lactate]
% lactone dissolved [1]: 20%

CCCCCCC(O)CO (stereo not drawn) [Caprylyl Glycol]
% lactone dissolved [1]: 8.65%

C=C(C)[C@H]1CC=C(C)CC1 [D-limonene]
% lactone dissolved [1]: 8.5%

COC(C)COC(C)CO (stereo not drawn) [DPM, dipropyleneglycol methyl ether]
GRAS status [2]: NOK | % lactone dissolved [1]: 28.93%

CO[C@H]1CO[C@H]2[C@@H]1OC[C@H]2OC [Dimethyl isosorbide]
GRAS status [2]: NOK | % lactone dissolved [1]: 31.89%

CCO [Ethanol]
% lactone dissolved [1]: 7.5%

CCOC(C)=O [Ethylacetate]
% lactone dissolved [1]: 3.96%

CC(=O)O [Glacial acetic]
% lactone dissolved [1]: 23.65%

O=C1OCC(CO)O1 (stereo not drawn) [Glycerincarbonate]
% lactone dissolved [1]: <1%

OCC(O)CO [Glycerol]
% lactone dissolved [1]: <1%

CCCCCCO [Hexanol]
% lactone dissolved [1]: 2.65%

OCCCc1ccccc1 [Hydrocinnamylalcohol]
% lactone dissolved [1]: 32.5%

CC(C)CCOC(=O)C(C)O (stereo not drawn) [Isoamyl lactate]
solubility in water (Solubility in water): ≤ 1% | GRAS status [2]: NOK | concentration at maximal PVC wetting [3]: ~1.2% | % lactone dissolved [1]: 21.2%

CC(C)O [Isopropanol]
% lactone dissolved [1]: 2.2%

CCCCOCC(C)O (stereo not drawn) [PNB Henkel]
% lactone dissolved [1]: 6.73%

CCCOCC(C)O (stereo not drawn) [PNP, 1-propoxy 2-propanol]
% lactone dissolved [1]: 15.57%

OCCc1ccccc1 [Phenetyl alcohol]
% lactone dissolved [1]: 22%

OCCOc1ccccc1 [Phenoxyethanol]
GRAS status [2]: NOK

CC(O)CO (stereo not drawn) [Propylene glycol]
% lactone dissolved [1]: 9.05%

CCCCCCCCCCCCOS(=O)(=O)[O-].[Na+] [SLS, sodium lauryl sulphate, reference compound]
Contact angle Rinse 2 ([4]; glass, sulphate): 33.2 and 64.2 and 33.8 | Contact angle Rinse 3 ([4]; glass, sulphate): 37.3 and 40.3 and 51.8 | Contact angle Rinse 4 ([4]; glass, after rinse 4, sulphate): 50.8 and 36.2 | Contact angle Rinse 5 ([4]; glass, after rinse 5, sulphate): 34 and 38 and 30 | Contact angle Rinse 1 ([5]; 1% active, sulphate): 72 and 100 and 96 | Contact angle Rinse 2 ([5]; 1% active, sulphate): 102 and 94 and 90 | Contact angle Rinse 3 ([5]; 1% active, sulphate): 64 and 65 | Contact angle Rinse 4 ([5]; 1% active, sulphate): 75 and 84 and 102 | Contact angle Rinse 5 ([5]; 1% active, sulphate): 100 and 99 and 101 | Contact Angle ([5]; 1% active): 1

Cc1ccc(C(C)C)c(O)c1 [Thymol, thymol, reference compound]
retention of active on PVC substrate (Film forming properties; 1% dispersion of 10% lactone, 10% thymol, 80% ethanol solution, smell and sulfuric acid colour): remained fixed on the PVC substrate for several rinses

Glycerin formal
% lactone dissolved [1]: 35%

sophorolactone
stability of dispersion (Film forming properties; 1% sophorolactone dispersion in water made from 10% solution in ethanol): remained stable overnight at room temperature without visual separation | removability of dried layer by water (Film forming properties; 10% sophorolactone in benzyl alcohol applied to a PVC sheet, air dried): virtually impossible to remove with running tap water or with repeated rinsing with water | repeated rinse and dry cycles withstood by layer (Film forming properties; PVC sheet, 1% sophorolactone dispersion, air dried): at least 5 cycles | effectiveness against Propionibacterium acnes (Propionibacterium acnes): effective | condensation or fogging above boiling water (Antifogging test): not visually covered with condensation water and retained its mirror properties | denaturation of dust mite proteins (dust mite proteins): denatures dust mite proteins | allergic reaction to excrements of house dust mites [6]: effectively reduces the allergic reaction | Contact angle Rinse 1 ([4]; glass): 15.3 and 10 and 12 | Contact angle Rinse 2 ([4]; glass): 24.4 and 30 and 25 | Contact angle Rinse 3 ([4]; glass): 23.5 and 27.8 and 25 | Contact Angle ([4]; glass): 14.2 and 14.1 and 11.3 and 10 | Contact angle Rinse 1 ([4]; leek): 25 and 26 and 28 | Contact Angle ([4]; leek): 28 and 27 and 25 | contact angles and rinse resistance ([5]; 1% lactone dispersion made using hard water): equally low contact angles and excellent rinse resistance | Contact angle Rinse 1 ([5]; 0.1% Lactone): 66 and 67 and 79 | Contact angle Rinse 2 ([5]; 0.1% Lactone): 90 and 80 | Contact angle Rinse 1 ([5]; 1% active in hard water (200 ppm CaCO3)): 19 and 20 and 21 | Contact angle Rinse 2 ([5]; 1% active in hard water): 14 and 15 | Contact angle Rinse 3 ([5]; 1% active in hard water): 12 and 17 and 14 | Contact angle Rinse 4 ([5]; 1% active in hard water): 11 and 12 | Contact angle Rinse 5 ([5]; 1% active in hard water): 12 and 11 and 10 | Contact angle Rinse 2 ([5]; 1% active): 0 | Contact angle Rinse 2 ([5]; 1% active, listed as lactone): 8.4 and 16 | Contact Angle ([5]; 1% active): 7 and 10 | wetting by water after rinses ([5]; hydrophobic surface such as PVC and leek): excellent wetting by water even after 5 rinses | phytotoxicity (Phytotoxicity): not phytotoxic | sensitivity to hard water [7]: insensitive to hard water

Reference: patent US9795131B2, “Sophorolactone compositions and uses thereof” (ECOVER CO-ORDINATION CENTER N.V., priority 2011, dated 2017)
